Series [1] concerns treatment refractory solid tumours. The series is described as follows: Tumour response (WHO response criteria). Type of series: in vivo, human. The source says: The study protocol was approved by the Research Ethics Committee of the Royal […] Trust. Written informed consent was obtained from all participants. All patients had treatment refractory solid tumours and were required to have at least one tumour deposit suitable for DCE-MRI evaluation. A suitable lesion had to be ⩾2 cm in size and in an anatomical position not subject to significant respiratory excursion. […] Exclusion criteria included patients with a known history of allergy to radiologic contrast agents or to Cremophor®; a Karnovsky performance status of <60%; a history of myocardial infarction, severe or unstable angina within 6 months of the study; diabetes mellitus with clinical evidence of severe peripheral vascular disease or ulceration; a medical condition or device implant that would interfere with or prevent MRI scans; or a serious concomitant medical condition that could interfere with the participation in the study or interpretation of study results.

In series [2] the test system is tumour vascular permeability. The series is described as follows: DCE-MRI of tumour vascular permeability. To be noted: for increase in leakage space (Ve): final scan (median 35 days), soft-tissue sarcoma patient. Type of series: in vivo, human. As for the experimental part:
All patients were asked to have a baseline DCE-MRI examination within the 7 days prior to receiving the study compound under study conditions as described above. Follow-up scans were performed on day 1 and then after 4 weeks of therapy. After the first three patients' examination, the protocol was amended to day 1, 2 weeks, 6 weeks and 6 weekly thereafter if the patient remained on study. All examinations were performed on a 1.5 T MRI system (Vision, Siemens Medical Systems, Erlangen, Germany) approximately 4 h after the commencement of the treatment infusion.
The image collection protocol comprised routine orthogonal T1- and T2-weighted images taken through the previously identified target lesion, to allow localisation and bi-dimensional tumour measurement. The dynamic imaging used a five-slice saturation recovery turbo fast low-angle shot sequence (SRTF) taken through the centre of the target lesion. Proton density-weighted images were acquired, followed by a series of T1-weighted images employing the same gain and image scaling factors. The sequential T1-weighted images were acquired every 9 s for 6.3 min (42 time points).
Gadopentetate dimeglumine (Magnevist Schering Health Care Limited, Burgess Hill, Sussex, UK) was injected intravenously using a mechanical power injector, through a peripherally placed cannula. This contrast was administered as a bolus after the third baseline data point was acquired at a dose of 0.1 mmol kg^−1 body weight. The use of the mechanical power injector allowed the contrast to be delivered within 10 s. The contrast injection was followed by a 20 ml flush of normal saline.
Using the resultant scanned images, two trained observers (AP, CH) blinded to the clinical outcome of the patients evaluated the patterns of enhancement within a designated region of interest. Contrast medium kinetic parameters were then derived for each pixel using MR Imaging Workbench software®. Quantitative and semiquantitative statistical analysis was then performed on these parameters using StatsDirect software (Research Solutions, Cambridge, UK).

Series [3] deals with coagulation / fibrinolytic pathway. Briefly: Coagulation parameters and expanded coagulation series in patients. Type of series: in vivo, human. On the procedure: During the dose escalation stage of the protocol, a standard series of coagulation parameters (APPT, INR and fibrinogen) was explored at baseline prior to therapy and every 2 weeks thereafter. In the dose expansion phase of the protocol, in response to the clinical occurrence of two separate venous thrombotic episodes in study patients, an expanded coagulation series was performed.
At each time point, blood was collected in citrated and EDTA tubes (Becton-Dickinson Vacutainer Systems, Europe). The samples from the citrated tubes were immediately centrifuged (at 4°C for 10 min at 3000 r.p.m.) supernatants pooled into inert plastic, centrifuged again (at 4°C, 10 min at 3000 r.p.m.) and the resultant sample stored in inert plastic tubes at −70°C until analysis. The sample taken into EDTA was centrifuged (at 4°C, for 10 min at 3000 r.p.m.), the supernatant decanted into inert plastic tubes and again stored at −70°C until analysis.

For series [4] the following is noted: human, in vivo.
For series [5] the following is noted: cited from earlier work.
Series [6] has as its system KIT (the receptor for stem cell factor). The arrangement: method as in Antonian et al, 2000; Smolich et al, 2001; Yee et al, 2002. To be noted: ref Antonian et al, 2000; Smolich et al, 2001; Yee et al, 2002; cited from earlier work.
Details of series [7]: method as in Fong et al, 1999. To be noted: preclinical models, intracellular; ref Fong et al, 1999; cited from earlier work.
Where [8] appears, read: 27 patients treated, two not evaluable.
Where [9] appears, read: mid-treatment (2 weeks), one patient, squamous cell carcinoma nasopharynx, 110 mg m^−2.

Consider one compound from article PMC2361651 (British Journal of Cancer, 2005).

For `Cc1cc(C)c(/C=C2\C(=O)Nc3ccccc32)[nH]1` [SU5416, Z-3-[(2,4-dimethylpyrrol-5-yl)methylidenyl]-2-indolinone], in series [1] (setting [8]), the “patients with progressive disease as best response” value is 14 patients and the “patients with stable disease at 6 weeks” value turned out to be 12 patients. Besides, in series [1] (haemangioendothelioma, ovarian and adrenocortical carcinoma), the “patients remaining on therapy for more than 12 weeks” value was “three”. Further, the “increase in leakage space (Ve)” value in series [2] (48 mg m^−2) is 36.5%. Further, the “increase in leakage space (Ve)” value in series [2] (final expansion cohort) is 34.5%. For the same compound, the “change in Ktrans” value in series [2] (increase, day 1, one patient with metastatic melanoma (target lesion brain)) stood at 91%. Also, in series [2] (setting [9]), the “change in Ktrans” value was −51.9% and the “change in Ve” value is listed as −48.6%. Also, the “change in INR, APTT or fibrinogen” value in series [3] (baseline and every 2 weeks) is given as “No change”. In series [3] (six patients, expanded panel), the “reduction in plasmin–anti-plasmin complexes, median change” value was 12.7 µg/L and the “reduction in plasmin–anti-plasmin complexes, range of change” value was in the range of 0 to 36 µg/L. Moreover, the “acute increase in plasminogen activator inhibitor (PAI-1) levels, median change” value in series [3] (six patients, expanded panel, recovery at 24 h) came out at 37.3 IU. Further, the “Grade II hypersensitivity reactions, patients affected” value in series [4] turned out to be 11 patients. The “degree of induction of SU5416 metabolism” value in series [5] (same schedule, sampling from day 1, ref Cropp et al, 1999, Rosen et al) is 69%. Moreover, in series [5] (same twice weekly schedule, ref Rosen et al, 1999), the “dose at which DLT (projectile vomiting and severe headache) was reported” value is listed as 190 mg m^−2. In addition, the “inhibition of KIT” value in series [6] was “potent competitive inhibitor”. Moreover, in series [7], the “time for which levels capable of target inhibition are maintained” value is greater than 48 h.
